For three compounds, EC50 results are on record in US20150344457A1, “METHODS OF INHIBITING PRMT5” (EPIZYME, INC., priority 2012, published 2015).

Usually EC50 stands for the midpoint of the concentration-response curve.

The subject of assay [1] is Z-138 cells. Put plainly: Z-138 Methylation Assay (In Cell Western for symmetric di-methyl arginine and DNA content). In kind it is cell-based. The following applies: Homo sapiens, Table D-2, read-out: ICW EC50. The gist of the method: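 Symmetric di-methyl arginine signal (800 nm) ratioed to DNA content (700 nm) by In Cell Western after four days of compound treatment of Z-138 suspension cells seeded at 50,000 cells/mL. Percent inhibition set between DMSO and 3 μM reference wells; IC50 curves from triplicates.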

Assay [2] concerns Z-138 cells. The experiment in a line: Z-138 Proliferation Assay (Cell Titer Glo, 5 days). As to conditions: Homo sapiens, Table D-2. In kind it is cell-based. An outline of the steps:
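Exponentially growing Z-138 cells (10,000 cells/ml) in RPMI 1640 with 10% FBS are exposed to nine-point 3-fold dilutions (final top concentration 20 μM, 0.2% DMSO) for 5 days at 37° C. Viability is measured as ATP by CellTiter-Glo luminescence. The 50% inhibitory concentration comes from a 4-parameter fit.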

On to `COc1ccc(Cn2cnc3ccc(-c4cccc(OCC(O)CN5CCc6ccccc6C5)c4)cc32)cc1` (stereo not drawn) [Compound D82], for which the EC50 lay in the range of 1 to 10 µM in the assay with Z-138 cells [1] and 10 to 40 µM in the assay on Z-138 cells [2].
In the same order, the values of `OC(CNc1cccc(CNC2CCCC2)c1)CN1CCc2ccccc2C1` (stereo not drawn) [Compound D39] are 1 to 10 µM and more than 20 µM.
Turning to `Cn1cc2ccc(-c3cc(NCC(O)CN4CCc5ccccc5C4)ncn3)cc2n1` (stereo not drawn) [Compound D224], the EC50 is 0.101 to 1 µM in the assay on Z-138 cells [1] and more than 20 µM in the assay with Z-138 cells [2].
